# Publication PMC12754617, “Ruthenium-enhanced curcumin derivatives target tumor growth and cancer-related inflammation in head and neck cancer models” (Frontiers in Oncology, 2025)
# Where two headings read alike, the source gives them in different places.
# What was measured:
# Detroit 562 [1] = test: Wound healing assay; format: cell-based, human; settings: IC25 concentration, area closed
# Protocol: (§1) The wound healing activity of complexes 3 and 4 was evaluated using the ibidi Culture-Insert 2 Well in a μ-dish. Cells were plated by applying 70 μL of cell suspension at a density of 50,000 cells into both wells of the Culture-Insert 2 Well and grown over the weekend. Once confluency was achieved, sterile tweezers were used to detach the Culture-Insert 2 Well from the μ-dish. The cell layer was then gently washed with PBS. Subsequently, the cell layer was treated with medium containing complex 3 or 4 at the IC25 concentration, and wound closure was observed and photographed using an inverted light microscope (0–55 h of incubation). Experiments were performed in four independent replicates.
# (§2) An in vitro wound healing assay was performed to determine the effect of complex 3 or 4 on cell migration. The area of the wound bordered by a monolayer of cells was measured using ImageJ software. Wound closure was monitored from 0 to 55 h. […] Microscope images after 24 h for all cell lines, as well as 55 h, can be seen in Supplementary Figure S7. […] The stained wound healing area after 55 h is shown in Supplementary Figure S10.
# FaDu = test: Wound healing assay; format: cell-based, human; settings: IC25 concentration, area closed
# Protocol: as §1, §2
# Hep-2 [2] = test: Wound healing assay; format: cell-based, human; settings: IC25 concentration, area closed
# Protocol: as §1, §2
# KB [3] = test: Wound healing assay; format: cell-based, human; settings: IC25 concentration, area closed
# Protocol: as §1, §2
# HGF [4] = test: Wound healing assay; format: cell-based, human; settings: IC25 concentration, area closed
# Protocol: as §1, §2
# CAL 27 [5] = test: Wound healing assay; format: cell-based, human; settings: IC25 concentration, area closed
# Protocol: as §1, §2
# TR146 [6] = test: Wound healing assay; format: cell-based, human; settings: IC25 concentration, area closed
# Protocol: as §1, §2
# SCC-9 [7] = test: Wound healing assay; format: cell-based, human; settings: IC25 concentration, area closed
# Protocol: as §1, §2
# IL-6R = biological target: T1, IL-6R (Homo sapiens, UniProt P08887); test: ELISA assay IL-6R; format: binding; settings: 8 μM, 500 pg/mL IL-6R
# T1 construct: purchased PeproTech, Thermo Fisher Scientific
# Protocol: Human ELISA kits for IL-6, IL-6R, and IL-8 (Sigma-Aldrich, Merck, Germany) were used to quantify cytokine levels after treatment with complex 3 or 4. Briefly, 96-well plates precoated with specific antibodies were used to capture IL-6, IL-6R, and IL-8 from samples. […] Each sample was supplemented with 500 pg/mL of IL-6/IL-6R/IL-8. Positive control wells contained only the IL-6/IL-6R/IL-8 standard (PeproTech, Thermo Fisher Scientific, Waltham, Massachusetts, USA). […] After incubation, wells were washed, and biotinylated antihuman antibodies were added, followed by washing and addition of HRP-conjugated streptavidin. Finally, the TMB substrate was added to develop a color proportional to the cytokine concentration, and the reaction was stopped with the stop solution. Absorbance was measured at 450 nm using an […] 200 PRO microplate reader (TECAN, Switzerland).
# Detroit 562 [8] = test: MTT viability assay; format: cell-based, human
# Protocol: (§3) A colorimetric 3-(4,5-dimethylthiazolyl)-2,5-diphenyltetrazolium bromide (MTT) cell metabolic activity assay was used to assess the cytotoxicity of complexes 3 and 4. The cells (described above) were cultured under standard conditions. Cells were seeded in 96-well plates at a density of 10,000 cells per well (200 μL) and allowed to grow for 24 h. The medium was then replaced with medium containing complex 3 or 4 at a concentration ranging from 0 to 200 μM, and the cells were incubated for an additional 24, 48, and 72 h. Subsequently, the medium was replaced with MTT solution, consisting of yellow tetrazolium dye 3-(4,5-dimethylthiazol-2-yl)-2,5-diphenyltetrazolium bromide (Sigma-Aldrich, Merck, Germany), and incubated for 2 h at 37°C. The dye was then removed, and the resulting purple formazan formed in viable cells was dissolved in DMSO, followed by shaking for 30 s. Absorbance was measured at 570 nm using an […] 200 PRO microplate reader (TECAN, Männedorf, Switzerland). All experiments were performed in quadruplicate and repeated three times.
# (§4) The cell inhibitory concentration (IC) was calculated using the equation IC = (Acomplex3/complex4 well/mean Acontrol wells) × 100%. The half-maximal inhibitory concentration (IC50) was determined from dose–response curves using GraphPad Prism 10 (GraphPad Software Inc., La Jolla, CA, USA). The selectivity index toward cancer cells was calculated as a ratio of the average IC50 value for HGF to the IC50 value for the corresponding cancer cell line.
# Hep-2 [9] = test: MTT viability assay; format: cell-based, human
# Protocol: as §3, §4
# KB [10] = test: MTT viability assay; format: cell-based, human
# Protocol: as §3, §4
# HGF [11] = test: MTT viability assay; format: cell-based, human
# Protocol: as §3, §4
# CAL 27 [12] = test: MTT viability assay; format: cell-based, human
# Protocol: as §3, §4
# TR146 [13] = test: MTT viability assay; format: cell-based, human
# Protocol: as §3, §4
# SCC-9 [14] = test: MTT viability assay; format: cell-based, human
# Protocol: as §3, §4
# T1 sequence (P08887 20-468): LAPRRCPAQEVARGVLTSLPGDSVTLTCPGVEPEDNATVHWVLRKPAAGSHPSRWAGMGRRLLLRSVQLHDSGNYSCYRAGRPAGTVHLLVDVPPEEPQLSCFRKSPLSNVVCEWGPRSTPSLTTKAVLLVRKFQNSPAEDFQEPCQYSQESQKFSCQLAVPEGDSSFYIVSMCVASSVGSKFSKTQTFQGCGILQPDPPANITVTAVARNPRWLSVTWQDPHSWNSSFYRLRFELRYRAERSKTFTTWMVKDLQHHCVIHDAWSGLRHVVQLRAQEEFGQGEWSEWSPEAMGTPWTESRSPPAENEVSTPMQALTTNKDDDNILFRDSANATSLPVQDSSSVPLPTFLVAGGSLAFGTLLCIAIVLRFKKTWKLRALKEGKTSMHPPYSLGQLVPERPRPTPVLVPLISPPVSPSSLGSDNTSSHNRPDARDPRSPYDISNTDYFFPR
compound,measurement,setting,value
Cc1ccc(C(C)C)cc1.Cc1ccc(C(C)C)cc1.O=C1C(=Cc2ccnc3ccccc23)COCC1=Cc1ccnc2ccccc12.[Cl][Ru][Cl].[Cl][Ru][Cl] [Complex 3],Wound area (%),"Detroit 562 [1]; Detroit 562, 24 h",8 ± 2%
same,Wound area (%),"Detroit 562 [1]; Detroit 562, 48 h",9 ± 3%
same,Wound area (%),"Detroit 562 [1]; Detroit 562, 55 h",less than 20%
same,Wound area (%),"Detroit 562 [1]; Detroit 562, 55 h, listed as C3",10 ± 2%
same,Wound area (%),FaDu; 24 h,7 ± 1%
same,Wound area (%),FaDu; 48 h,9 ± 1%
same,Wound area (%),FaDu; 55 h,less than 20%
same,Wound area (%),"FaDu; 55 h, listed as C3",12 ± 1%
same,Wound area (%),"Hep-2 [2]; Hep-2, 24 h",3 ± 1%
same,Wound area (%),"Hep-2 [2]; Hep-2, 48 h",5 ± 1%
same,Wound area (%),"Hep-2 [2]; Hep-2, 55 h",less than 10%
same,Wound area (%),"Hep-2 [2]; Hep-2, 55 h, listed as C3",7 ± 1%
same,Wound area (%),KB [3]; 24 h,7 ± 1%
same,Wound area (%),KB [3]; 48 h,13 ± 1%
same,Wound area (%),KB [3]; 55 h,less than 20%
same,Wound area (%),"KB [3]; 55 h, listed as C3",17 ± 2%
same,Wound area (%),HGF [4]; 24 h,8 ± 3%
same,Wound area (%),HGF [4]; 48 h,13 ± 5%
same,Wound area (%),HGF [4]; 55 h,71 ± 2%
same,Wound area (%),"CAL 27 [5]; CAL 27, 24 h",10 ± 2%
same,Wound area (%),"CAL 27 [5]; CAL 27, 48 h",15 ± 3%
same,Wound area (%),"CAL 27 [5]; CAL 27, 55 h",less than 20%
same,Wound area (%),"CAL 27 [5]; CAL 27, 55 h, listed as C3",16 ± 3%
same,Wound area (%),"TR146 [6]; TR146, 24 h",3 ± 1%
same,Wound area (%),"TR146 [6]; TR146, 48 h",4 ± 1%
same,Wound area (%),"TR146 [6]; TR146, 55 h",less than 10%
same,Wound area (%),"TR146 [6]; TR146, 55 h, listed as C3",5 ± 1%
same,Wound area (%),"SCC-9 [7]; SCC-9, 24 h",5 ± 2%
same,Wound area (%),"SCC-9 [7]; SCC-9, 48 h",6 ± 2%
same,Wound area (%),"SCC-9 [7]; SCC-9, 55 h",less than 10%
same,Wound area (%),"SCC-9 [7]; SCC-9, 55 h, listed as C3",7 ± 2%
same,Decrease in IL-6R concentration,IL-6R,about 15%
same,IC50,"Detroit 562 [8]; Detroit 562, 24 h, read-out: IC50 24h",12.3 ± 1.83 µM
same,IC50,"Detroit 562 [8]; Detroit 562, 48 h, read-out: IC50 48h",3.9 ± 0.13 µM
same,IC50,"Detroit 562 [8]; Detroit 562, 72 h, read-out: IC50 72h",3.5 ± 0.11 µM
same,IC50,"Hep-2 [9]; Hep-2, 24 h, read-out: IC50 24h",12.7 µM
same,IC50,"Hep-2 [9]; Hep-2, 48 h, read-out: IC50 48h",11.1 ± 0.32 µM
same,IC50,"Hep-2 [9]; Hep-2, 72 h, read-out: IC50 72h",5.15 ± 0.07 µM
same,IC50,"KB [10]; 24 h, read-out: IC50 24h",14.3 µM
same,IC50,"KB [10]; 48 h, read-out: IC50 48h",10.5 ± 0.43 µM
same,IC50,"KB [10]; 72 h, read-out: IC50 72h",3.7 ± 0.42 µM
same,IC50,"HGF [11]; 24 h, read-out: IC50 24h",20.8 ± 3.95 µM
same,IC50,"HGF [11]; 48 h, read-out: IC50 48h",13 ± 0.27 µM
same,IC50,"HGF [11]; 72 h, read-out: IC50 72h",9.15 ± 1.2 µM
same,IC50,"CAL 27 [12]; CAL 27, 24 h, read-out: IC50 24h",22.5 ± 1.08 µM
same,IC50,"CAL 27 [12]; CAL 27, 48 h, read-out: IC50 48h",12.9 ± 2.56 µM
same,IC50,"CAL 27 [12]; CAL 27, 72 h, read-out: IC50 72h",6.35 ± 1.75 µM
same,IC50,"TR146 [13]; TR146, 24 h, read-out: IC50 24h",19.7 ± 4.82 µM
same,IC50,"TR146 [13]; TR146, 48 h, read-out: IC50 48h",11.3 ± 0.78 µM
same,IC50,"TR146 [13]; TR146, 72 h, read-out: IC50 72h",4.9 ± 0.42 µM
same,IC50,"SCC-9 [14]; SCC-9, 24 h, read-out: IC50 24h",4.7 µM
same,IC50,"SCC-9 [14]; SCC-9, 48 h, read-out: IC50 48h",2.85 ± 0.01 µM
same,IC50,"SCC-9 [14]; SCC-9, 72 h, read-out: IC50 72h",2.8 ± 0.01 µM
